From patent US11207310B2 (PRILENIA NEUROTHERAPEUTICS LTD., priority 2016, dated 2021)
Like-named read-outs stand apart in the source and are kept apart here.

Assays:
patients with HD [1] = system: patients with HD
Experimental: Three variables were calculated: (1) The change from baseline to Week 26 and Week 52 in the sum of the UHDRS-TMS items except the Chorea items, (2) The change from baseline to Week 26 and Week 52 in the sum of the UHDRS-TMS items except the Dystonia items, and (3) The change from baseline to Week 26 and Week 52 in the sum of the UHDRS-TMS items except the Chorea and Dystonia items. These variables were analyzed in the same way as the primary efficacy endpoint except that the variable evaluation at baseline were included in the model instead of baseline UHDRS-TMS.

patients with HD [2] = conditions: for TFC Domestic Chores, Δ to placebo: 52 weeks, Early Stage HD (TFC≥7)
Text: (§1) The TFC scale of the UHDRS is a standardized scale used to assess 5 functional domains associated with disability shown below (occupation, finances, domestic chores (e.g. laundry, washing dishes), activities of daily living, and care level). The TFC score has a range of 0-13 and is a well-established endpoint for trials aiming disease progression. […] The TFC score is accepted by regulators and often considered the most widely accepted tool for disease procession in HD patients. Additionally, TFC is considered the gold standard for measuring HD rate of functional decline. […] The floor and ceiling effects make TFC scores more sensitive to change in early stage HD than in late stage HD.
Domestic Chores: 0=unable, 1=impaired, 2=normal.

patients with HD [3] = conditions: for TFC Care Level, Δ to placebo: 52 weeks, Early Stage HD (TFC≥7); for Change from baseline in UHDRS TFC Care Level, Δ to placebo: Week 52
Text: as §1
Care level: 0=fill time skill nursing, 1=home or chronic care, 2=home.

patients with HD [4] = conditions: week 52
Text: Motor deficits can be objectively assessed using different Q-Motor assessments. All Q-Motor assessments are based on the application of precalibrated and temperature controlled force transducers and 3-dimensional position sensors with very high sensitivity and test-retest reliability across sessions and sites in a multicenter clinical study. Q-Motor measures thus aim to reduce the limited sensitivity of categorical clinical rating scales, the intra- and inter-rater variability, and placebo effects observed in scales such as UHDRS-TMS. In addition, Q-Motor assessments allow for the objective monitoring of unintended motor side-effects in clinical studies. Thus, Q-Motor is an objective, reliable, and sensitive measure of motor function that is free of rater bias and limits placebo effect influence.
This task assesses the regularity of hand taps performed when alternating between the palm and dorsal surface of the hand performing a repetitive pronation/supination movement. The force and duration of the hand taps are recorded similarly to the speeded tapping task. A tone cues the start and end of an assessment. Five trials of 10 seconds duration are performed with each hand.

patients with HD [5] = system: patients with HD; remark: listed apart in the source
Experimental: The CAB may be used to detect symptomatic, “pro-cognitive” effects (6 months-1 year) and slowing rate of cognitive decline (>1 year). […] The CAB covers domains most impacted in HD, using tests with good psychometric properties. The following six sections describe the tests that are part of the CAB brief. • 1. Symbol Digit Modalities Test
Visual attention and task switching are assessed using the Trail Making test, which consists of 25 circles on a standard sheet of paper. For Trail A, participants are required to connect, as quickly as possible, circles containing numbers in ascending numerical order. For Trail B, participants are to connect, as quickly as possible, circles containing numbers and letters, alternating between numbers and letters in ascending order (e.g., 1, A, 2, B, 3, C, etc.). […] Trail A is used only as part of the training. • 4. Hopkins Verbal Learning Test, revised

[6] = 45 mg bid, Week 26, Stage 1 BL TFC 11-13
[7] = 45 mg bid, Week 52, Stage 1 BL TFC 11-13
[8] = 67.5 mg bid, Week 26, Stage 1 BL TFC 11-13
[9] = 67.5 mg bid, Week 52, Stage 1 BL TFC 11-13
[10] = 90 mg bid, Week 26, Stage 1 BL TFC 11-13
[11] = 90 mg bid, Week 52, Stage 1 BL TFC 11-13
[12] = 112.5 mg bid, Week 26, Stage 1 BL TFC 11-13
[13] = 112.5 mg bid, Week 52, Stage 1 BL TFC 11-13

CCCN1CCC(c2cccc(S(C)(=O)=O)c2)CC1 [pridopidine, 4-[3-(methylsulfonyl)phenyl]-1-propyl-piperidine]
percentage of patients categorized as Responders within the chorea+dystonia items (patients with HD [1]; 45 mg bid, BL dystonia ≥4, completed 52 weeks, placebo 66.7%): 77.8%
Change from baseline in UHDRS TMS Excluding Dystonia, Δ to placebo (patients with HD [1]; 45 mg bid, Week 26, ALL): 1.39
Change from baseline in UHDRS TMS Involuntary Movements, Δ to placebo (patients with HD [1]; 45 mg bid, Week 26, ALL): 0.89
Change from baseline in UHDRS TMS Excluding Dystonia, Δ to placebo (patients with HD [1]; [6]): −3.6
Change from baseline in UHDRS TMS Involuntary Movements, Δ to placebo (patients with HD [1]; [6]): −2.49
Change from baseline in UHDRS TMS Excluding Chorea, Δ to placebo (patients with HD [1]; 45 mg bid, Week 52, ALL): 0.05
Change from baseline in UHDRS TMS Involuntary Movements, Δ to placebo (patients with HD [1]; 45 mg bid, Week 52, ALL): 0.02
Change from baseline in UHDRS TMS Excluding Chorea, Δ to placebo (patients with HD [1]; [7]): −4.09
Change from baseline in UHDRS TMS Involuntary Movements, Δ to placebo (patients with HD [1]; [7]): −2.73
Change from baseline in UHDRS TMS Excluding Dystonia, Δ to placebo (patients with HD [1]; 67.5 mg bid, Week 26, ALL): 1.97
Change from baseline in UHDRS TMS Involuntary Movements, Δ to placebo (patients with HD [1]; 67.5 mg bid, Week 26, ALL): 0.48
Change from baseline in UHDRS TMS Excluding Dystonia, Δ to placebo (patients with HD [1]; [8]): −2.2
Change from baseline in UHDRS TMS Involuntary Movements, Δ to placebo (patients with HD [1]; [8]): −3.07
Change from baseline in UHDRS TMS Excluding Chorea, Δ to placebo (patients with HD [1]; 67.5 mg bid, Week 52, ALL): 1.31
Change from baseline in UHDRS TMS Involuntary Movements, Δ to placebo (patients with HD [1]; 67.5 mg bid, Week 52, ALL): 0.8
Change from baseline in UHDRS TMS Excluding Chorea, Δ to placebo (patients with HD [1]; [9]): −0.18
Change from baseline in UHDRS TMS Involuntary Movements, Δ to placebo (patients with HD [1]; [9]): −0.2
Change from baseline in UHDRS TMS Excluding Dystonia, Δ to placebo (patients with HD [1]; 90 mg bid, Week 26, ALL): 1.2
Change from baseline in UHDRS TMS Involuntary Movements, Δ to placebo (patients with HD [1]; 90 mg bid, Week 26, ALL): 0.01
Change from baseline in UHDRS TMS Excluding Dystonia, Δ to placebo (patients with HD [1]; [10]): −4.35
Change from baseline in UHDRS TMS Involuntary Movements, Δ to placebo (patients with HD [1]; [10]): −4
Change from baseline in UHDRS TMS Excluding Chorea, Δ to placebo (patients with HD [1]; 90 mg bid, Week 52, ALL): 1.67
Change from baseline in UHDRS TMS Involuntary Movements, Δ to placebo (patients with HD [1]; 90 mg bid, Week 52, ALL): −0.26
Change from baseline in UHDRS TMS Excluding Chorea, Δ to placebo (patients with HD [1]; [11]): −4.92
Change from baseline in UHDRS TMS Involuntary Movements, Δ to placebo (patients with HD [1]; [11]): −3.8
Change from baseline in UHDRS TMS Excluding Dystonia, Δ to placebo (patients with HD [1]; 112.5 mg bid, Week 26, ALL): 2.4
Change from baseline in UHDRS TMS Involuntary Movements, Δ to placebo (patients with HD [1]; 112.5 mg bid, Week 26, ALL): 0.76
Change from baseline in UHDRS TMS Excluding Dystonia, Δ to placebo (patients with HD [1]; [12]): −4.31
Change from baseline in UHDRS TMS Involuntary Movements, Δ to placebo (patients with HD [1]; [12]): −1.64
Change from baseline in UHDRS TMS Excluding Chorea, Δ to placebo (patients with HD [1]; 112.5 mg bid, Week 52, ALL): 1.94
Change from baseline in UHDRS TMS Involuntary Movements, Δ to placebo (patients with HD [1]; 112.5 mg bid, Week 52, ALL): 0.57
Change from baseline in UHDRS TMS Excluding Chorea, Δ to placebo (patients with HD [1]; [13]): −1.59
Change from baseline in UHDRS TMS Involuntary Movements, Δ to placebo (patients with HD [1]; [13]): 0.8
TFC Domestic Chores, Δ to placebo (patients with HD [2]; 45 mg bid): 0.24
Change from baseline in UHDRS TFC Domestic Chores, Δ to Placebo (patients with HD [2]; 45 mg bid, Week 26, ALL): −0.01
Change from baseline in UHDRS TFC Domestic Chores, Δ to Placebo (patients with HD [2]; [6]): 0.34
Change from baseline in UHDRS TFC Domestic Chores, Δ to Placebo (patients with HD [2]; 45 mg bid, Week 52, ALL): 0.23
Change from baseline in UHDRS TFC Domestic Chores, Δ to Placebo (patients with HD [2]; [7]): 0.49
TFC Domestic Chores, Δ to placebo (patients with HD [2]; 67.5 mg bid): 0.09
Change from baseline in UHDRS TFC Domestic Chores, Δ to Placebo (patients with HD [2]; 67.5 mg bid, Week 26, ALL): 0.02
Change from baseline in UHDRS TFC Domestic Chores, Δ to Placebo (patients with HD [2]; [8]): 0.21
Change from baseline in UHDRS TFC Domestic Chores, Δ to Placebo (patients with HD [2]; 67.5 mg bid, Week 52, ALL): −0.03
Change from baseline in UHDRS TFC Domestic Chores, Δ to Placebo (patients with HD [2]; [9]): 0.05
TFC Domestic Chores, Δ to placebo (patients with HD [2]; 90 mg bid): 0.16
Change from baseline in UHDRS TFC Domestic Chores, Δ to Placebo (patients with HD [2]; 90 mg bid, Week 26, ALL): 0
Change from baseline in UHDRS TFC Domestic Chores, Δ to Placebo (patients with HD [2]; [10]): 0.34
Change from baseline in UHDRS TFC Domestic Chores, Δ to Placebo (patients with HD [2]; 90 mg bid, Week 52, ALL): 0.05
Change from baseline in UHDRS TFC Domestic Chores, Δ to Placebo (patients with HD [2]; [11]): 0.1
TFC Domestic Chores, Δ to placebo (patients with HD [2]; 112.5 mg bid): 0.04
Change from baseline in UHDRS TFC Domestic Chores, Δ to Placebo (patients with HD [2]; 112.5 mg bid, Week 26, ALL): 0.06
Change from baseline in UHDRS TFC Domestic Chores, Δ to Placebo (patients with HD [2]; [12]): 0.47
Change from baseline in UHDRS TFC Domestic Chores, Δ to Placebo (patients with HD [2]; 112.5 mg bid, Week 52, ALL): 0.04
Change from baseline in UHDRS TFC Domestic Chores, Δ to Placebo (patients with HD [2]; [13]): 0.23
TFC Care Level, Δ to placebo (patients with HD [3]; 45 mg bid): 0.12
Change from baseline in UHDRS TFC Care Level, Δ to placebo (patients with HD [3]; 45 mg bid, ALL): 0.09
Change from baseline in UHDRS TFC Care Level, Δ to placebo (patients with HD [3]; 45 mg bid, Stage 2 BL TFC 7-10): 0.13
TFC Care Level, Δ to placebo (patients with HD [3]; 67.5 mg bid): 0.09
Change from baseline in UHDRS TFC Care Level, Δ to placebo (patients with HD [3]; 67.5 mg bid, ALL): 0
Change from baseline in UHDRS TFC Care Level, Δ to placebo (patients with HD [3]; 67.5 mg bid, Stage 2 BL TFC 7-10): 0.12
TFC Care Level, Δ to placebo (patients with HD [3]; 90 mg bid): 0.08
Change from baseline in UHDRS TFC Care Level, Δ to placebo (patients with HD [3]; 90 mg bid, ALL): −0.08
Change from baseline in UHDRS TFC Care Level, Δ to placebo (patients with HD [3]; 90 mg bid, Stage 2 BL TFC 7-10): 0.1
TFC Care Level, Δ to placebo (patients with HD [3]; 112.5 mg bid): 0.04
Change from baseline in UHDRS TFC Care Level, Δ to placebo (patients with HD [3]; 112.5 mg bid, ALL): −0.03
Change from baseline in UHDRS TFC Care Level, Δ to placebo (patients with HD [3]; 112.5 mg bid, Stage 2 BL TFC 7-10): 0.03
Wk 52 Δ to placebo: Q-Motor Pro-Sup-Frequency-MN-Hand, change from baseline (patients with HD [4]; 45 mg bid, FAS): 0.0599 Hz
Wk 52 Δ to placebo: Q-Motor Pro-Sup-Frequency-MN-Hand, change from baseline (patients with HD [4]; 45 mg bid, HD1 and HD2 patients): 0.1195 Hz
Wk 52 Δ to placebo: Q-Motor Pro-Sup-Frequency-MN-Hand, change from baseline (patients with HD [4]; 67.5 mg bid, FAS): −0.0124 Hz
Wk 52 Δ to placebo: Q-Motor Pro-Sup-Frequency-MN-Hand, change from baseline (patients with HD [4]; 67.5 mg bid, HD1 and HD2 patients): 0.0548 Hz
Wk 52 Δ to placebo: Q-Motor Pro-Sup-Frequency-MN-Hand, change from baseline (patients with HD [4]; 90 mg bid, FAS): −0.0087 Hz
Wk 52 Δ to placebo: Q-Motor Pro-Sup-Frequency-MN-Hand, change from baseline (patients with HD [4]; 90 mg bid, HD1 and HD2 patients): 0.0575 Hz
Wk 52 Δ to placebo: Q-Motor Pro-Sup-Frequency-MN-Hand, change from baseline (patients with HD [4]; 112.5 mg bid, FAS): 0.0127 Hz
Wk 52 Δ to placebo: Q-Motor Pro-Sup-Frequency-MN-Hand, change from baseline (patients with HD [4]; 112.5 mg bid, HD1 and HD2 patients): 0.08 Hz
Δ to placebo: CAB Trail Making Test score, change from baseline (patients with HD [5]; 45 mg bid, week 26): −0.95
Δ to placebo: CAB Trail Making Test score, change from baseline (patients with HD [5]; 45 mg bid, week 52): −13.56
Δ to placebo: CAB Trail Making Test score, change from baseline (patients with HD [5]; 67.5 mg bid, week 26): −3.03
Δ to placebo: CAB Trail Making Test score, change from baseline (patients with HD [5]; 67.5 mg bid, week 52): −7.54
Δ to placebo: CAB Trail Making Test score, change from baseline (patients with HD [5]; 90 mg bid, week 26): −6.64
Δ to placebo: CAB Trail Making Test score, change from baseline (patients with HD [5]; 90 mg bid, week 52): −12.48
Δ to placebo: CAB Trail Making Test score, change from baseline (patients with HD [5]; 112.5 mg bid, week 26): 2.97
Δ to placebo: CAB Trail Making Test score, change from baseline (patients with HD [5]; 112.5 mg bid, week 52): 2.01
